ChEMBL document CHEMBL1121759, “Aporphines, 36. Dopamine receptor interactions of trihydroxyaporphines. Synthesis, radioreceptor binding, and striatal adenylate cyclase stimulation of 2,10,11-trihydroxyaporphines in comparison with other hydroxylated aporphines” (J Med Chem, 1981)
The source made the active and inactive calls. The calls are words filed in the database; no cut-off is given here.

Experiments:
Format in all cases: tissue-based
[1] = biological target: T1, Adenylate cyclase (Rattus norvegicus) (UniProt D4A3N4+P26770+Q04400+P26769+Q03343+P40146+Q8CFM9+P21932); experiment: Dopamine sensitive adenylate cyclase activity (stimulation) in homogenates of rat brain striatal tissue was assessed at 50 uM of compound; ++ = 41-60% incresae of cAMP above basal activity
[2] = biological target: T1, Adenylate cyclase (Rattus norvegicus); experiment: Dopamine sensitive adenylate cyclase activity (stimulation) in homogenates of rat brain striatal tissue was assessed at 50 uM; + = <40% increase of cAMP above basal activity
[3] = biological target: T1, Adenylate cyclase (Rattus norvegicus); experiment: Dopamine sensitive adenylate cyclase activity (stimulation) in homogenates of rat brain striatal tissue was assessed at 50 uM of compound; Inhibitis the cyclase activity
[4] = biological target: T1, Adenylate cyclase (Rattus norvegicus); experiment: Dopamine sensitive adenylate cyclase activity (stimulation) in homogenates of rat brain striatal tissue was assessed at 50 uM of compound; +++ = 61-80% incresae of cAMP above basal activity

SMILES	Stimulation [2]	further results
CN1CCc2cc(O)cc3c2[C@H]1Cc1ccc(O)c(O)c1-3	–	Stimulation [1]: Active
CCN1CCc2cc(O)cc3c2[C@H]1Cc1ccc(O)c(O)c1-3	Partially active	–
CN1CCc2cccc3c2C1Cc1ccc(O)cc1-3 (stereo not drawn)	Partially active	–
OCCN1CCc2cccc3c2[C@H]1Cc1ccc(O)c(O)c1-3	Partially active	–
CCCN1CCc2cccc3c2[C@H]1Cc1cccc(O)c1-3	Partially active	–
Oc1ccc2c(c1O)-c1cccc3c1[C@@H](C2)N(CCCl)CC3	–	Stimulation [3]: inactive
C=CCN1CCc2cc(O)cc3c2[C@H]1Cc1ccc(O)c(O)c1-3	Partially active	–
Oc1cc2c3c(c1)-c1c(ccc(O)c1O)C[C@H]3NCC2	Partially active	–
CCCN1CCc2cccc3c2[C@H]1Cc1ccc(O)c(O)c1-3 (stereo in doubt; 1c)	–	Stimulation [1]: Active
CN1CCc2cccc3c2[C@H]1Cc1ccc(O)c(O)c1-3	–	Stimulation [4]: Partially active
CCCN1CCc2cccc3c2[C@H]1Cc1ccc(O)c(O)c1-3 (stereo in doubt; 1b)	–	Stimulation [4]: Partially active
CCCN1CCc2cc(O)cc3c2[C@H]1Cc1ccc(O)c(O)c1-3	Partially active	–
C#CCN1CCc2cc(O)cc3c2[C@H]1Cc1ccc(O)c(O)c1-3	Partially active	–
